Measurements from patent publication US20220031700A1, “Treatment of Acute Respiratory Distress Syndrome (ARDS)” (priority 2020, published 2022).
“Also recorded” adds a separate entry of the source.

Key:
[1] = system: mouse model of cytokine storm; experiment: Evans Blue dye (EBD) assay of lung after intranasal LPS challenge; format: in vivo
TNF-alpha = experiment: Plasma TNF-alpha level by ELISA after intranasal LPS challenge; format: in vivo, mouse; conditions: Example 2; 100 mg/kg IP, all dosing paradigms; comparison to LPS/vehicle group
Method: (§1) Intranasal administration of LPS: The LPS challenge was carried out according to Ma et al. (2019).
(§2) Compound dosing: Animals in groups 2-5 were dosed according to the Table 2 for 6 days. Group 3 animals received 6 doses of MLR-1023 QD and a 7th dose 1 hour prior to LPS. Group 4 animals received 6 doses of MLR-1023 QD and Vehicle 1 hour prior to LPS. Group 5 animals received 6 Vehicle doses QD and 1 dose of MLR-1023 1 hour prior to LPS. On day 7, 1 hour after the last dose, animals were intranasally treated with LPS. Six hours after the instillation of LPS, animals received an IV dose of EBD. Thirty minutes later, animals were sacrificed, and the lungs were collected as previously described.

[2] = system: mouse model of cytokine storm; experiment: Lung Wet/Dry ratio assay after intranasal LPS challenge; format: in vivo; conditions: LPS 50 μg IN, compared to LPS/Vehicle group
Method: Intranasal administration of LPS: The LPS challenge was carried out according to Ma et al., Inflammation, 2019, 42, 1901-1912.
Compound dosing: Animals in groups 2-5 were dosed according to the Table 1 for 6 days. On day 7, 1 hour after the last dose, animals were intranasally treated with LPS. Dexamethasone (20 mg/kg PO) was administered 1 hour prior to LPS treatment. Six hours after the instillation of LPS, animals received an IV dose of EBD. Thirty minutes later, animals were sacrificed, and the lungs were collected as previously described.
as §1, §2

in vivo = conditions: mouse
total IgM = experiment: Serum total IgM by ELISA in experimental influenza model; conditions: influenza 6.5 Lg EID50 IN; 100 mg/kg IP QD 12 days; Day 12; compared to influenza-infected/vehicle treated controls
[3] = system: Influenza-specific antibody; experiment: Serum influenza-specific antibody by ELISA in experimental influenza model; conditions: influenza 6.5 Lg EID50 IN; 100 mg/kg IP QD 12 days; Day 12; compared to influenza-infected/vehicle treated controls
IL-6 = experiment: Plasma IL-6 level by ELISA after intranasal LPS challenge; format: in vivo, mouse; conditions: Example 2; 100 mg/kg IP, all dosing paradigms; comparison to LPS/vehicle group
Method: as §1, §2

total IgG = experiment: Serum total IgG by ELISA in experimental influenza model; conditions: influenza 6.5 Lg EID50 IN; 100 mg/kg IP QD 12 days; Day 12; compared to influenza-infected/vehicle treated controls

Compound: Cc1cccc(Oc2cnc(=O)[nH]c2)c1 [MLR-1023, tolimidone]
- Evans Blue content in the lung ([1]; Example 1, C57Bl/6J male mice, LPS 50 μg IN, MLR-1023 30 and 100 mg/kg IP QD 7 days, last dose 1 hr prior to LPS, dexamethasone 20 mg/kg PO 1 hr prior to LPS, compared to LPS/Vehicle group): greater than that of dexamethasone and comparable to that of animals that received no LPS; also recorded: significant dose dependent decrease
- Evans Blue dye content in the lungs (plasma extravasation) ([1]; Example 2, 100 mg/kg IP QD, 6 doses plus acute dose 1 hour before LPS challenge (7×), relative to the 6-dose paradigm): comparable level of reduced plasma extravasation
- Evans Blue dye content in the lungs ([1]; Example 2, 100 mg/kg IP QD, 6 doses, vehicle 1 hr prior to LPS (6×), compared to LPS/Vehicle group): significant decrease
- Evans Blue dye content in the lungs (plasma extravasation) ([1]; Example 2, 100 mg/kg IP, single dose 1 hr prior to LPS challenge (1×)): did not yield reduction
- plasma TNF-α concentration (TNF-alpha): did not produce significant effects
- wet/dry ratio of the lung ([2]; Example 1, C57Bl/6J male mice, MLR-1023 30 and 100 mg/kg IP QD 7 days, last dose 1 hr prior to LPS, dexamethasone 20 mg/kg PO 1 hr prior to LPS): significant dose dependent decrease
- wet/dry ratio of the lung ([2]; Example 2, 100 mg/kg IP, all dosing paradigms (7×, 6×, 1×)): significant decrease
- half-life (in vivo): ~1.5 h
- serum total IgM level (total IgM): did not alter
- serum influenza-specific antibody level [3]: did not alter
- plasma IL-6 concentration (IL-6): did not produce significant effects
- serum total IgG level (total IgG): did not alter
